# Experimental data from patent publication US20140243414A1, “PHARMACEUTICAL COMPOSITIONS OF CETP INHIBITORS” (Japan Tobacco Inc., priority 2003, published 2014).
# Read-outs that look alike come from different tables or passages of the source.
# Columns and labels:
# [1] = Plasma pharmacokinetics of the active form of Compound I, single oral doses after standard breakfast, Japanese males (Example 3); format: in vivo, human; details: Examples 1-4
# Procedure: Administration, dosing, and sampling schedules were commensurate with those described in Example 1. The tablets were prepared as described in Example 1.
# CETP [2] = target: T1, CETP (Homo sapiens, UniProt P11597); assay: Food effect on CETP activity, 900 mg Compound I, Caucasian males (Example 6); format: in vivo; details: for change in vivo at 900 mg: read-out: Percent change from pre-dose in CETP activity (mean)
# T1 construct: from tissue; host or cells: blood / plasma of human subjects dosed orally with Compound I
# T1 sequence (P11597 18-493): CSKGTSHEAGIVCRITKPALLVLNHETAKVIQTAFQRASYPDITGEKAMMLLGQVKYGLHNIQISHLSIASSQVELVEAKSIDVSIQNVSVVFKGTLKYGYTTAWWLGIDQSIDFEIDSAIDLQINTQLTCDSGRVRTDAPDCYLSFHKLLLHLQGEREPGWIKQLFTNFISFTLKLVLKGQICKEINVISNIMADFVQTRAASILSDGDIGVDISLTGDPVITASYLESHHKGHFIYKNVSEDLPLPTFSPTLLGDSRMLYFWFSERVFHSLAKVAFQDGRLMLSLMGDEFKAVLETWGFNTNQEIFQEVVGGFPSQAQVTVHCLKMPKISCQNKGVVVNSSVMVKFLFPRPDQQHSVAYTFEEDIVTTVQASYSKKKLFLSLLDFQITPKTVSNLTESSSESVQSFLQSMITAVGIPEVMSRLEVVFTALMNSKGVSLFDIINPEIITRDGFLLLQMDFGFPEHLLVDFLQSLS
# From the text: Administration, dosing, and sampling schedules were substantially similar to those described in Example 1.
# The procedure for determining CETP activity is described in Example 5.
# The mean changes from baseline (pre-dose) in CETP activity over time are set out in the plot of FIG. 3.
# CETP [3] = target: T1, CETP; assay: Food effect on relative CETP activity, 600 mg Compound I, Japanese males (Example 8); format: in vivo
# Procedure: Administration, dosing, and sampling schedules were commensurate with those described in Examples 1 and 6. […] Patients were administered two tablets of 300 mg each. The tablets were prepared as described in Example 1.
# Relative CETP activities (calculated as a percentage of baseline CETP activity) and standard deviations (SD) were measured, and the resulting data is summarized in Table 9.
# CETP [4] = target: T1, CETP; assay: CETP activity after 4 weeks daily treatment, healthy volunteers (Example 9); format: in vivo; details: for Absolute change in CETP activity: 4 weeks treatment, mean ± SD; for Decrease in CETP activity relative to baseline: 4 weeks
# Procedure: (§1) Each patient took three tablets after breakfast each day for 4 weeks. Patients either took three placebo tablets (placebo); one 300 mg tablet and two placebo tablets (low dose); two 300 mg tablets and one placebo tablet (medium dose); or three 300 mg tablets (high dose). Tablet preparation was as described as in Example 1.
# (§2) The testing period consisted of (a) a run-in period of 4 weeks, followed by (b) 4 weeks of treatment, and (c) 4 weeks of monitoring. Blood samples were drawn after an overnight fast. […] HDL-C was determined with a heparin MnCl2 precipitation reagent and LDL-C was calculated by the Friedewald formula (see, de Grooth et al., supra). CETP activity was measured as described in Example 5.
# (§3) Table 11 describes the absolute changes in the assayed properties after 4 weeks of treatment.
# TC, HDL-C, LDL-C = assay: Lipid levels after 4 weeks daily treatment, healthy volunteers (Example 9); format: in vivo, human; details: for Decrease in TC/HDL-C ratio relative to baseline / Increase in HDL-C levels relative to baseline: 4 weeks; for Absolute change in HDL-C / Absolute change in TC / Absolute change in TC/HDL-C ratio / Absolute change in LDL-C: 4 weeks treatment, mean ± SD; for Absolute change in LDL-C: LDL-C by Friedewald formula
# Procedure: as §1, §2, §3
# Solubility in water = format: physicochemical
smiles,measurement,setting,value
"CCC(CC)CC1(C(=O)Nc2ccccc2SC(=O)C(C)C)CCCCC1 [Compound I, S-[2-([[1-(2-ethylbutyl)cyclohexyl]carbonyl]amino)phenyl]2-methylpropanethioate]","Bioavailability (as indicated by Cmax, AUC0-tz, AUC0-∞) in Oriental (especially Japanese) humans as compared to Caucasian humans",[1],greater
same,change in vivo at 900 mg,"CETP [2]; 1 h, fasted, 1 h",1%
same,change in vivo at 900 mg,"CETP [2]; 1 h, fed, 1 h",-1%
same,change in vivo at 900 mg,"CETP [2]; 2 h, fasted, 2 h",2%
same,change in vivo at 900 mg,"CETP [2]; 2 h, fed, 2 h",-16%
same,change in vivo at 900 mg,"CETP [2]; 4 h, fasted, 4 h",-4%
same,change in vivo at 900 mg,"CETP [2]; 4 h, fed, 4 h",-44%
same,change in vivo at 900 mg,"CETP [2]; 6 h, fasted, 6 h",-10%
same,change in vivo at 900 mg,"CETP [2]; 6 h, fed, 6 h",-59%
same,change in vivo at 900 mg,"CETP [2]; 8 h, fasted, 8 h",-15%
same,change in vivo at 900 mg,"CETP [2]; 8 h, fed, 8 h",-58%
same,change in vivo at 900 mg,"CETP [2]; 24 h, fasted, 24 h",-10%
same,change in vivo at 900 mg,"CETP [2]; 24 h, fed, 24 h",-34%
same,"CETP activity, Post-study (all subjects)","CETP [2]; all subjects (fed and fasted periods), post-study",96
same,CETP activity relative to pre-dose,"CETP [3]; fasted, 1 h",102.1%
same,CETP activity relative to pre-dose,"CETP [3]; fasted, 2 h",99.6%
same,CETP activity relative to pre-dose,"CETP [3]; fasted, 4 h",96.5%
same,CETP activity relative to pre-dose,"CETP [3]; fasted, 6 h",89.5%
same,CETP activity relative to pre-dose,"CETP [3]; fasted, 8 h",87.8%
same,CETP activity relative to pre-dose,"CETP [3]; fasted, 24 h",92.6%
same,CETP activity relative to pre-dose,"CETP [3]; fasted, post-study",100.4%
same,CETP activity relative to pre-dose,"CETP [3]; fed, 1 h",100.4%
same,CETP activity relative to pre-dose,"CETP [3]; fed, 2 h",87.8%
same,CETP activity relative to pre-dose,"CETP [3]; fed, 4 h",52.6%
same,CETP activity relative to pre-dose,"CETP [3]; fed, 6 h",37.6%
same,CETP activity relative to pre-dose,"CETP [3]; fed, 8 h",39.1%
same,CETP activity relative to pre-dose,"CETP [3]; fed, 24 h",65.5%
same,CETP activity relative to pre-dose,"CETP [3]; fed, post-study",102.9%
same,Absolute change in CETP activity,CETP [4]; 300 mg per day after breakfast,−15.4 ± 11.9 % of control
same,Decrease in CETP activity relative to baseline,CETP [4]; 300 mg per day with food,about 17%
same,Absolute change in CETP activity,CETP [4]; 600 mg per day after breakfast,−29.6 ± 19.5 % of control
same,Decrease in CETP activity relative to baseline,CETP [4]; 600 mg per day with food,about 33%
same,Absolute change in CETP activity,CETP [4]; 900 mg per day after breakfast,−37.2 ± 17.6 % of control
same,Decrease in CETP activity relative to baseline,CETP [4]; 900 mg per day with food,about 39%
same,Decrease in TC/HDL-C ratio relative to baseline,"TC, HDL-C, LDL-C; 300 mg per day",about 13%
same,Increase in HDL-C levels relative to baseline,"TC, HDL-C, LDL-C; 300 mg per day",about 15%
same,Absolute change in HDL-C,"TC, HDL-C, LDL-C; 300 mg per day",0.18 ± 0.15 mmol/L
same,Absolute change in TC,"TC, HDL-C, LDL-C; 300 mg per day",−0.1 ± 0.5^ mmol/L
same,Absolute change in TC/HDL-C ratio,"TC, HDL-C, LDL-C; 300 mg per day",−0.7 ± 0.8
same,Absolute change in LDL-C,"TC, HDL-C, LDL-C; 300 mg per day",−0.2 ± 0.5^ mmol/L
same,Decrease in TC/HDL-C ratio relative to baseline,"TC, HDL-C, LDL-C; 600 mg per day",about 18%
same,Increase in HDL-C levels relative to baseline,"TC, HDL-C, LDL-C; 600 mg per day",about 26%
same,Absolute change in HDL-C,"TC, HDL-C, LDL-C; 600 mg per day",0.32 ± 0.22 mmol/L
same,Absolute change in TC,"TC, HDL-C, LDL-C; 600 mg per day",0.0 ± 0.6 mmol/L
same,Absolute change in TC/HDL-C ratio,"TC, HDL-C, LDL-C; 600 mg per day",−0.9 ± 0.8
same,Absolute change in LDL-C,"TC, HDL-C, LDL-C; 600 mg per day",−0.2 ± 0.6^ mmol/L
same,Decrease in TC/HDL-C ratio relative to baseline,"TC, HDL-C, LDL-C; 900 mg per day",about 23%
same,Increase in HDL-C levels relative to baseline,"TC, HDL-C, LDL-C; 900 mg per day",about 34%
same,Absolute change in HDL-C,"TC, HDL-C, LDL-C; 900 mg per day",0.40 ± 0.29 mmol/L
same,Absolute change in TC,"TC, HDL-C, LDL-C; 900 mg per day",0.0 ± 0.6 mmol/L
same,Absolute change in TC/HDL-C ratio,"TC, HDL-C, LDL-C; 900 mg per day",−1.2 ± 0.7
same,Absolute change in LDL-C,"TC, HDL-C, LDL-C; 900 mg per day",-0.3 ± 0.6 mmol/L
same,solubility,Solubility in water,< 0.1 µg/mL
